The test system of the assay is Aspergillus fumigatus. Description: Antifungal activity against Aspergillus fumigatus B5233 conidia after 16 hrs by fluorescence-based microplate assay at pH 7.2. Type of assay: functional, organism-based. The conditions noted are these: B5233, 16 h.

For the compound `Cc1cc(C2CCCCC2)n(O)c(=O)c1` [CICLOPIROX], the midpoint of inhibition, the IC50, lay at 4.22 µM.
To `Cc1c(O)c(=O)ccn1C` [DEFERIPRONE] belongs 1.29 µM.

As usually defined, the IC50 is the concentration at which inhibition is half-maximal. Read a low IC50 as greater potency in that assay.

The values are drawn from ChEMBL document CHEMBL1649449, “Antifungal activities of natural and synthetic iron chelators alone and in combination with azole and polyene antibiotics against Aspergillus fumigatus” (Antimicrob Agents Chemother, 2009).
